PubChem BioAssay AID2060512 (Molecular Pharmacology Branch, DTP, NCI, 2025)

System: 186277-243-T-J2-PDC complex spheroid viability
Assay: Anticancer human tumor 186277-243-T-J2-PDC patient-derived colon adenocarcinoma cell line growth inhibition [GQUAD]
Details: for IC50: curve of first compound; for viability, T/C: stronger effect = lower value; active = viability on the fitted dose curve at most 10% of control; inactive = the rest
Procedure, shortened: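 Multi-cell-type spheroids of tumor cells with HUVEC and mesenchymal stem cells, treated with drug combinations. Concentrations descend in half-log steps from near clinical Cmax, or from 10 microM where Cmax is unknown; viability read-out.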

[1] = second compound 0.0316 µM, first compound 0.0316 µM
[2] = second compound 0.0316 µM, first compound 0.1 µM
[3] = second compound 0.0316 µM, first compound 0.316 µM
[4] = second compound 0.0316 µM, first compound 1 µM
[5] = second compound 0.0316 µM, first compound 3.16 µM
[6] = second compound 0.0316 µM, first compound 10 µM
[7] = second compound 0.1 µM, first compound 0.0316 µM
[8] = second compound 0.1 µM, first compound 0.1 µM
[9] = second compound 0.1 µM, first compound 0.316 µM
[10] = second compound 0.1 µM, first compound 1 µM
[11] = second compound 0.1 µM, first compound 3.16 µM
[12] = second compound 0.1 µM, first compound 10 µM
[13] = second compound 0.316 µM, first compound 0.0316 µM
[14] = second compound 0.316 µM, first compound 0.1 µM
[15] = second compound 0.316 µM, first compound 0.316 µM
[16] = second compound 0.316 µM, first compound 1 µM
[17] = second compound 0.316 µM, first compound 3.16 µM
[18] = second compound 0.316 µM, first compound 10 µM
[19] = second compound 1 µM, first compound 0.0316 µM
[20] = second compound 1 µM, first compound 0.1 µM
[21] = second compound 1 µM, first compound 0.316 µM
[22] = second compound 1 µM, first compound 1 µM
[23] = second compound 1 µM, first compound 3.16 µM
[24] = second compound 1 µM, first compound 10 µM
[25] = second compound 3.16 µM, first compound 0.0316 µM
[26] = second compound 3.16 µM, first compound 0.1 µM
[27] = second compound 3.16 µM, first compound 0.316 µM
[28] = second compound 3.16 µM, first compound 1 µM
[29] = second compound 3.16 µM, first compound 3.16 µM
[30] = second compound 3.16 µM, first compound 10 µM
[31] = second compound 10 µM, first compound 0.0316 µM
[32] = second compound 10 µM, first compound 0.1 µM
[33] = second compound 10 µM, first compound 0.316 µM
[34] = second compound 10 µM, first compound 1 µM
[35] = second compound 10 µM, first compound 3.16 µM
[36] = second compound 10 µM, first compound 10 µM
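Also: spheroids exposed to drugs for 7 days.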
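For viability, T/C in this document: 100% = DMSO vehicle control viability.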

CC(C)n1c(=O)n(C)c2cnc3cc(F)c(-c4ccc(OCCCN5CCCCC5)nc4)cc3c21 + Cc1cnc(CNC(=O)c2c(=O)c3ccc(N4CCCN(C)CC4)nc3n3c2sc2ccccc23)cn1
< 31.6 nM: IC50 (second compound 3.16 µM) | IC50 (second compound 10 µM)
3600 nM: IC50 (second compound 0.316 µM)
inactive: viability, T/C [1] 90.6% | viability, T/C [2] 79.9% | viability, T/C [3] 73.5% | viability, T/C [4] 69.3% | viability, T/C [5] 75% | viability, T/C [6] 76.2% | viability, T/C [7] 70.4% | viability, T/C [8] 54.4% | viability, T/C [9] 70.6% | viability, T/C [10] 73.1% | viability, T/C [11] 59.4% | viability, T/C [12] 46.5% | viability, T/C [13] 67.8% | viability, T/C [14] 67.6% | viability, T/C [15] 48.8% | viability, T/C [16] 70.8% | viability, T/C [17] 46.5% | viability, T/C [18] 41.2% | viability, T/C [19] 49.2% | viability, T/C [20] 46.3% | viability, T/C [21] 52.2% | viability, T/C [22] 54.8% | viability, T/C [23] 52.3% | viability, T/C [24] 42.5% | viability, T/C [25] 43.7% | viability, T/C [26] 39.8% | viability, T/C [27] 49.5% | viability, T/C [28] 39.7% | viability, T/C [29] 40.6% | viability, T/C [30] 36.4% | viability, T/C [31] 31.8% | viability, T/C [32] 47.5% | viability, T/C [33] 40% | viability, T/C [34] 39.7% | viability, T/C [35] 38.3% | viability, T/C [36] 35.6%
> 10000 nM: IC50 (second compound 0.0316 µM) | IC50 (second compound 0.1 µM)
144 nM: IC50 (second compound 1 µM)

CC1COCCN1c1cc(C2(O)CC3CCC(C2)O3)c2cnn(-c3ccn[nH]3)c2n1 (centres undefined) + Cc1cnc(CNC(=O)c2c(=O)c3ccc(N4CCCN(C)CC4)nc3n3c2sc2ccccc23)cn1
active: viability, T/C [3] 5.91% | viability, T/C [4] 3.51% | viability, T/C [5] 5.56% | viability, T/C [6] 3.63% | viability, T/C [9] 8.6% | viability, T/C [10] 4.53% | viability, T/C [11] 4.78% | viability, T/C [12] 2.97% | viability, T/C [16] 6.49% | viability, T/C [17] 4.71% | viability, T/C [18] 2.1% | viability, T/C [23] 5.94% | viability, T/C [24] 0.5% | viability, T/C [29] 5.54% | viability, T/C [30] 0.33% | viability, T/C [35] 6.86% | viability, T/C [36] 0.13%
inactive: viability, T/C [1] 31.3% | viability, T/C [2] 13.1% | viability, T/C [7] 38.7% | viability, T/C [8] 16.4% | viability, T/C [13] 37.7% | viability, T/C [14] 20.9% | viability, T/C [15] 13.4% | viability, T/C [19] 29.5% | viability, T/C [20] 31.5% | viability, T/C [21] 16.4% | viability, T/C [22] 8.79% | viability, T/C [25] 36.2% | viability, T/C [26] 31% | viability, T/C [27] 19.5% | viability, T/C [28] 10.8% | viability, T/C [31] 34.9% | viability, T/C [32] 28.4% | viability, T/C [33] 23.2% | viability, T/C [34] 10.9%
< 31.6 nM: IC50 (second compound 0.0316 µM) | IC50 (second compound 0.1 µM) | IC50 (second compound 0.316 µM) | IC50 (second compound 1 µM) | IC50 (second compound 3.16 µM) | IC50 (second compound 10 µM)
